Holding throughout (assay): ITC, one set of sites model
Test [1] deals with T1, SbtB (Synechocystis sp. PCC 6803, UniProt P73954).
T1 construct: gene slr1513; R-loop Cys105-Cys110
To be noted: WT oxidized R-loop; re-calculated here from the group's earlier ITC data (ref 11) with single binding model; cited from earlier work.

In test [2] the target is T2, SbtB-Δ104 (Synechocystis sp. PCC 6803, UniProt P73954).
T2 construct: gene slr1513; C-terminal R-loop truncated, StrepII-tagged, recombinant, trimer
T2 sequence (P73954 1-104, stated change not applied): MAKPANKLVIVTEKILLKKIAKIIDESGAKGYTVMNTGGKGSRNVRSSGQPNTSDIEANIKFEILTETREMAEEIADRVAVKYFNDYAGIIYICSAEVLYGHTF
Format: binding.

In test [3] the target is T3, SbtB (Synechocystis sp. PCC 6803, UniProt P73954, C105A/C110A).
T3 construct: gene slr1513; R-loop Cys105-Cys110
T3 sequence (P73954 whole entry C105A/C110A): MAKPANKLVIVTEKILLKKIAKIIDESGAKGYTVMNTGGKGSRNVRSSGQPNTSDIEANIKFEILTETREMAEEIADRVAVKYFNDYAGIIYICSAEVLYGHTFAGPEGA
It counts as binding.

Test [4] has as its target T4, SbtB (Synechocystis sp. PCC 6803, UniProt P73954, C105S/C110S).
T4 construct: gene slr1513; R-loop Cys105-Cys110
It counts as binding.

The target in test [5] is T5, SbtB (Synechocystis sp. PCC 6803, UniProt P73954, C110S).
T5 construct: gene slr1513; R-loop Cys105-Cys110
T5 sequence (P73954 whole entry C110S): as the sequence (P73954 whole entry C105A/C110A) above, with A105C, A110S counted along it
It counts as binding.

Test [6] deals with T6, SbtB (Synechocystis sp. PCC 6803, UniProt P73954, C105S).
T6 construct: gene slr1513; R-loop Cys105-Cys110
T6 sequence (P73954 whole entry C105S): as the sequence (P73954 whole entry C105A/C110A) above, with A105S, A110C counted along it
It counts as binding.

Test [7] concerns the target T7, SbtB-Δ109 (Synechocystis sp. PCC 6803, UniProt P73954).
T7 construct: gene slr1513; last residue Cys110 deleted, StrepII-tagged, recombinant, trimer
Format: binding.

Structures are written as SMILES.

T1 sequence (P73954 whole entry): as the sequence (P73954 whole entry C105A/C110A) above, with A105C, A110C counted along it
T4 sequence (P73954 whole entry C105S/C110S): as the sequence (P73954 whole entry C105A/C110A) above, with A105S, A110S counted along it
T7 sequence (P73954 1-109, stated change not applied): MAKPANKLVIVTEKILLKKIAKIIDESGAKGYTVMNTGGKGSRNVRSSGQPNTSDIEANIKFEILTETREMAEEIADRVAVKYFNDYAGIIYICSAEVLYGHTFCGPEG

As for `Nc1ncnc2c1ncn2[C@@H]1O[C@H](COP(=O)(O)OP(=O)(O)O)[C@@H](O)[C@H]1O` [ADP], the Kd in test [1] was 55.8 ± 7.7 µM; in test [2], 79.2 ± 55.1 µM.
As for `Nc1ncnc2c1ncn2[C@@H]1O[C@H](COP(=O)(O)O)[C@@H](O)[C@H]1O` [AMP], the Kd is 87.4 ± 3.7 µM in test [1] and 78.2 ± 6 µM in test [2].
Take `Nc1ncnc2c1ncn2[C@@H]1O[C@H](COP(=O)(O)OP(=O)(O)OP(=O)(O)O)[C@@H](O)[C@H]1O` [ATP]: the equilibrium dissociation constant (Kd) in test [3] is 29.8 ± 14.1 µM; in test [4], 47.6 ± 21.3 µM; in test [5], 60.1 ± 6.7 µM; in test [6], 40.5 ± 75.9 µM; in test [1], 62.5 ± 16.6 µM; in test [2], 35 ± 7.1 µM. The same molecule gave a dissociation constant (Kd) in test [7] of 32.5 ± 17.9 µM.

These data come from publication PMC10991534, “The redox-sensitive R-loop of the carbon control protein SbtB contributes to the regulation of the cyanobacterial CCM” (Scientific Reports, 2024).
